Laboratory results as given in patent publication US11535597B2, “Photoreactive ligands and uses thereof” (The Scripps Research Institute, priority 2017, dated 2022).

Tested on: proteins in HEK293T cells
Assay: MS-based mapping of FFF probe-modified peptides (isoTOP, sites of labeling)
Type: binding, human
Summary of the method: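 Live cells treated with fragment probes (200-250 μM) in serum-free DMEM, with or without competitor ligands. Proteomes clicked to light/heavy biotin-TEV-azide, streptavidin-enriched, trypsin- then TEV-digested; probe-modified peptides identified by LC-MS/MS with any residue allowed as modified site, isoTOP ratios quantified by CIMAGE.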

`C#CCCC1(CCC(=O)Nc2ccc(C3CCNCC3)cc2)N=N1` [probe 9, 3-(3-(But-3-yn-1-yl)-3H-diazirin-3-yl)-N-(4-(piperidin-4-yl)phenyl)propanamide] was tested, and the “Labeled Peptide of HEXA Beta-hexosaminidase subuit alpha” value (Accession P06865, residues of probe-labeled peptide, family Enzymes) was 489-499, the “Labeled Peptide of GAA Lysosomal alpha-glucosidase” value (Accession P10253, residues of probe-labeled peptide, family Enzymes) was 855-870 and the “Labeled Peptide of GLB1 Beta-galactosidase” value (Accession P16278, residues of probe-labeled peptide, family Enzymes) was 286-299. For the same molecule, the “Labeled Peptide” value (HEXA Beta-hexosaminidase subunit alpha, residues of probe-modified peptide) was 489-499, the “Labeled Peptide” value (HSP90B1 Endoplasmin, residues of probe-modified peptide) was 117-135 and the “Labeled Peptide” value (LGALS3BP Galectin-3-binding protein (Q08380), residues of the probe-labeled peptide) was 522-541. The “Labeled Peptide” value (MAN2B1 Lysosomal alpha-mannosidase (O00754), residues of the probe-labeled peptide) was 614-638, the “Labeled Peptide” value (MAN2B2 Epididymis specific alpha-mannosidase (Q9Y2E5), residues of the probe-labeled peptide) was 642-664 and the “Labeled Peptide” value (NAGLU Alpha-N-acetylglucosaminidase (P54802), residues of the probe-labeled peptide) was 566-580. For the same molecule, the “Labeled Peptide” value (P4HB Protein disulfide-isomerase (P07237), residues of the probe-labeled peptide) was 171-195, the “Labeled Peptide” value (P00338 LDHA L-lactate dehydrogenase A chain) was 43-57 and the “Labeled Peptide” value (P06865 HEXA Beta-hexosaminidase subunit alpha) was 489-499. For the same molecule, the “Labeled Peptide” value (P07339 CTSD Cathepsin D) was 236-253, the “Labeled Peptide” value (P14625 HSP90B1 Endoplasmin) was 117-135 and the “Labeled Peptide” value (P16278 GLB1 Beta-galactosidase) was 286-299. The “Labeled Peptide (residues) of SMYD3 SET and MYND domain-containing protein 3” value (Q9H7B4, peptide DQYCLECDCFR, PDB 5HQ8) was 255-265, the “Labeled Peptide” value (protein ATP1A1 (P05023), residues of probe-labeled peptide) was 894-911 and the “Labeled Peptide” value (protein C19orf6 Membralin (Q4ZIN3), residues of probe-labeled peptide) was 254-271. The “Labeled Peptide” value (protein CCT6A T-complex protein 1 subunit zeta (P40227), residues of probe-labeled peptide) was 400-424, the “Labeled Peptide” value (protein CLN5 Ceroid-lipofuscinosis neuronal protein 5 (O75503), residues of probe-labeled peptide) was 74-96 and the “Labeled Peptide” value (protein CPVL Probable serine carboxypeptidase CPVL (Q9H3G5), residues of probe-labeled peptide) was 195-208. The “Labeled Peptide” value (protein CTSD Cathepsin D, residues of probe-labeled peptide) was 236-253, the “Labeled Peptide” value (protein CTSD Cathespin D (P07339), residues of probe-labeled peptide) was 236-253 and the “Labeled Peptide” value (protein DNASE2 Deoxyribonuclease-2-alpha (O00115), residues of probe-labeled peptide) was 173-202. For the same molecule, the “Labeled Peptide” value (protein ECHDC1 Ethylmalonyl-CoA decarboxylase (Q9NTX5), residues of probe-labeled peptide) was 272-283, the “Labeled Peptide” value (protein EIF4H Eukaryotic translation initiation factor 4H (Q15056), residues of probe-labeled peptide) was 97-109 and the “Labeled Peptide” value (protein FARSB Phenylalanine--tRNA ligase beta subunit, residues of probe-labeled peptide) was 72-82. For the same molecule, the “Labeled Peptide” value (protein FARSB Phenylalanini--tRNA ligase beta subunit (Q9NSD9), residues of probe-labeled peptide) was 72-82, the “Labeled Peptide” value (protein GLB1 Beta-galactosidase, residues of probe-labeled peptide) was 286-299 and the “Labeled Peptide” value (protein LDHA L-lactate dehydrogenase A chain, residues of the probe-labeled peptide) was 43-57. The “Labeled Peptide” value (protein NAGLU Alpha-N-acetylglucosaminidase, residues of the probe-labeled peptide) was 566-580, the “Labeled Peptide” value (protein P4HB Protein disulfide-isomerase, residues of the probe-labeled peptide) was 171-195 and the “Labeled Peptide” value (protein P46977 STT3A Dolichyl-diphosphooligosaccharide--protein glycosy) was 572-595. The “Labeled Peptide” value (protein PCYOX1 Prenylcysteine oxidase 1 (Q9UHG3)) was 292-304, the “Labeled Peptide” value (protein PDIA4 Protein disulfide-isomerase A4 (P13667)) was 486-499 and the “Labeled Peptide” value (protein PHB Prohibitin (P35232)) was 220-239. For the same molecule, the “Labeled Peptide” value (protein Q8IXU6 SLC35F2 Solute carrier family 35 member F2) was 188-221, the “Labeled Peptide” value (protein Q8TCJ2 STT3B Dolichyl-diphosphooligosaccharide--protein glycosy) was 651-674 and the “Labeled Peptide” value (protein Q9BVK6 TMED9 Transmembrane emp24 domain-containg protein 9) was 49-65. For the same molecule, the “Labeled Peptide” value (protein Q9H7B4 SMYD3 SET and MYND domain-containing protein 3) was 255-265, the “Labeled Peptide” value (protein Q92973 TNPO1 Transportin-1) was 273-298 and the “Labeled Peptide” value (protein RALA Ras-related protein Ral-A (P11233)) was 28-47. The “Labeled Peptide” value (protein SMYD3 SET and MYND domain-containing protein 3, residues of the probe-modified peptide) was 255-265 and the “Labeled Peptide” value (protein TNPO1 Transportin-1, residues of the probe-modified peptide) was 273-298.
